{
  "source": "paper PMC8041276",
  "about": "(ACS Chemical Neuroscience, 2021)",
  "key": {"D3 dopamine receptor": {"molecular_target": "T1, D3 dopamine receptor (Homo sapiens, UniProt P35462)", "T1 construct": "Eurofins Cerep (contract assay)", "T1 sequence (P35462 whole entry)": "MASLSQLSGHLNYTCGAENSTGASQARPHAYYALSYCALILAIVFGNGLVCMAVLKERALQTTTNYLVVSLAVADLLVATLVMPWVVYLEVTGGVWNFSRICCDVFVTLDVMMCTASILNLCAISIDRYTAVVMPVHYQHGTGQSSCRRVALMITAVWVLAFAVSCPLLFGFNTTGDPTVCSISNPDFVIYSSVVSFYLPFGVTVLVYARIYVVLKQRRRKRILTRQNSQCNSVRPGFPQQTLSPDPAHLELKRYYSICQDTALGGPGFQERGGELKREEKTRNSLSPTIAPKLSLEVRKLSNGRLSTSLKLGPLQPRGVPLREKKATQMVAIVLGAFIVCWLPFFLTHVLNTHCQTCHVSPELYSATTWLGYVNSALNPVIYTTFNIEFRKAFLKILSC", "experiment": "Eurofins Cerep off-target binding, % inhibition at 1 μM", "procedure": "(§1) Additionally, the affinity of compound 27 at the adrenergic α1A, muscarinic M1, histaminergic H1, dopaminergic D3, serotoninergic 5-HT2C, 5-HT3 receptors, serotonin transporter (SERT), and the human ether-a-go-go-related gene (hERG) channel were evaluated in Eurofins Cerep."}, "H1 histaminic receptor": {"molecular_target": "T2, H1 histaminic receptor (Homo sapiens, UniProt P35367)", "T2 construct": "Eurofins Cerep (contract assay)", "T2 sequence (P35367 whole entry)": "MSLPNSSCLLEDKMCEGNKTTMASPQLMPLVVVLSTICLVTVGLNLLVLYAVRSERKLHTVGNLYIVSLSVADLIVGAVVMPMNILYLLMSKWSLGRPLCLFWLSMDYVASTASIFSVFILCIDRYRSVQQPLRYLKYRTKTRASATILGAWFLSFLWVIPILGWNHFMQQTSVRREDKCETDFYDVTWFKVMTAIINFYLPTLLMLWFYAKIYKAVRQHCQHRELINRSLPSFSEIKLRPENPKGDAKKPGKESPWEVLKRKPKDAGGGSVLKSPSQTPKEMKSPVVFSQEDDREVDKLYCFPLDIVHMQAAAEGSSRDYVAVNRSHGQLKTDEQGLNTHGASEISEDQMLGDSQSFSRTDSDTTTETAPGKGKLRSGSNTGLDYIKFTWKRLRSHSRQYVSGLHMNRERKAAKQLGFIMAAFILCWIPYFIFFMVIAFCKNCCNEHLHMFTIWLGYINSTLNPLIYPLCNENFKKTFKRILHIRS", "experiment": "Eurofins Cerep off-target binding, % inhibition at 1 μM", "procedure": "as §1"}, "M1 muscarinic receptor": {"molecular_target": "T3, M1 muscarinic receptor (Homo sapiens, UniProt P11229)", "T3 construct": "Eurofins Cerep (contract assay)", "T3 sequence (P11229 1-460)": "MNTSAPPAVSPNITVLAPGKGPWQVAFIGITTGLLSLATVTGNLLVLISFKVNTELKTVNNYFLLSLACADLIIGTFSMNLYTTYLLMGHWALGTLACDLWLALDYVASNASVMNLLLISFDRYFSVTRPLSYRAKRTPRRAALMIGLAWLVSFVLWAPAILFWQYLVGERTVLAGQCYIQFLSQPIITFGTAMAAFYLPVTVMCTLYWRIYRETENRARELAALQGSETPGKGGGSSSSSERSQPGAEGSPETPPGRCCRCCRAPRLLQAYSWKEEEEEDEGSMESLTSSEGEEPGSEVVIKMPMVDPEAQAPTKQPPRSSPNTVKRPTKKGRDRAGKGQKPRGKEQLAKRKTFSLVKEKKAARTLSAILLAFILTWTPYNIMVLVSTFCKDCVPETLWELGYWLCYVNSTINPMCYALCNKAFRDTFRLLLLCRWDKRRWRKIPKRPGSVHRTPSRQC", "experiment": "Eurofins Cerep off-target binding, % inhibition at 1 μM", "procedure": "as §1"}, "serotonin 5-HT3 receptor": {"molecular_target": "T4, serotonin 5-HT3 receptor (Homo sapiens, UniProt P46098)", "T4 construct": "Eurofins Cerep (contract assay)", "T4 sequence (P46098 24-478)": "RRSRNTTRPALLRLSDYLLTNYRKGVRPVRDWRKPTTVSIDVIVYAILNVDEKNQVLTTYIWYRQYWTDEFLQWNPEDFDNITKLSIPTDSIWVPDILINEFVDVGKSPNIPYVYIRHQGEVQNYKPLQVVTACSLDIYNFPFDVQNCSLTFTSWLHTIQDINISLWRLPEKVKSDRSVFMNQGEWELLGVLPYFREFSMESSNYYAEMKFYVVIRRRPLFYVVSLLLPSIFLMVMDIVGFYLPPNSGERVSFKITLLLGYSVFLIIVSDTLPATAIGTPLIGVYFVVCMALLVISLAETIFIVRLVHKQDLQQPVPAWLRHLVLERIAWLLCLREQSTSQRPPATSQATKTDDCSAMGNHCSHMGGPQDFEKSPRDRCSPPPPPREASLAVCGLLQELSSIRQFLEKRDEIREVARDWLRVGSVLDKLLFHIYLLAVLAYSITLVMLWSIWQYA", "experiment": "Eurofins Cerep off-target binding, % inhibition at 1 μM", "procedure": "as §1"}, "[1]": {"molecular_target": "T5, serotonin transporter (SERT) (Homo sapiens, UniProt P31645)", "T5 construct": "Eurofins Cerep (contract assay)", "T5 sequence (P31645 whole entry, species assumed)": "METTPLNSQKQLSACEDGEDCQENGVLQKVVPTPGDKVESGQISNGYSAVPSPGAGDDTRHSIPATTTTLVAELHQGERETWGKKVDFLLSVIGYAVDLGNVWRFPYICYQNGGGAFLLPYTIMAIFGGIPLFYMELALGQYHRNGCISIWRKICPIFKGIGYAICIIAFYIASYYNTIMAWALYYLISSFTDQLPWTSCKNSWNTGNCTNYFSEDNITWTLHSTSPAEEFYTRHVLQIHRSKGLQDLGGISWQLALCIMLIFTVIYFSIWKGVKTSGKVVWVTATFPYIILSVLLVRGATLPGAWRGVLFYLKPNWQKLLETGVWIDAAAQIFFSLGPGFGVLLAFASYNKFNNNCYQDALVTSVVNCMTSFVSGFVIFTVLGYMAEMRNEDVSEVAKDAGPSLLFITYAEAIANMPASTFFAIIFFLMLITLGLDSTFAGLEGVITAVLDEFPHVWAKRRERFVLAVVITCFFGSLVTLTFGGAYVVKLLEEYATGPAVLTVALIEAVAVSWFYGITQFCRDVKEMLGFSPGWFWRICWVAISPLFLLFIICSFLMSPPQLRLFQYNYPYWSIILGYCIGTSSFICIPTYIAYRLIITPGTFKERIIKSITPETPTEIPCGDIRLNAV", "experiment": "Eurofins Cerep off-target binding, % inhibition at 1 μM", "procedure": "as §1"}, "α1A adrenoreceptor": {"molecular_target": "T6, α1A adrenoreceptor (Homo sapiens, UniProt P35348)", "T6 construct": "Eurofins Cerep (contract assay)", "T6 sequence (P35348 1-466)": "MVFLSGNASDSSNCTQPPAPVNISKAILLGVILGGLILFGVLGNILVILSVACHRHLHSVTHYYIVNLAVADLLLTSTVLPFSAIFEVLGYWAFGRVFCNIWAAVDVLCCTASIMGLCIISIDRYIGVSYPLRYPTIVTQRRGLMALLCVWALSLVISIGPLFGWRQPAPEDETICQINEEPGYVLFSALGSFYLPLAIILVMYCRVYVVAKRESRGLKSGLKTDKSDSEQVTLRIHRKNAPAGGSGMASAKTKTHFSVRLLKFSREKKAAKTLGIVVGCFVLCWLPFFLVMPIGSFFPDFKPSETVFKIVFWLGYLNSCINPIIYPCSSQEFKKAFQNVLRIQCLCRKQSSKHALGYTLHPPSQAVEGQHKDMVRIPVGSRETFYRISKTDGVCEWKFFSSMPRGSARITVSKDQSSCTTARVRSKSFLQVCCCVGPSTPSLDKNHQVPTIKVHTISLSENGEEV", "experiment": "Eurofins Cerep off-target binding, % inhibition at 1 μM", "procedure": "as §1"}, "CYP2D6": {"molecular_target": "T7, CYP2D6 (Homo sapiens, UniProt P10635)", "T7 construct": "purchased Promega (Madison, WI, USA)", "T7 sequence (P10635 whole entry)": "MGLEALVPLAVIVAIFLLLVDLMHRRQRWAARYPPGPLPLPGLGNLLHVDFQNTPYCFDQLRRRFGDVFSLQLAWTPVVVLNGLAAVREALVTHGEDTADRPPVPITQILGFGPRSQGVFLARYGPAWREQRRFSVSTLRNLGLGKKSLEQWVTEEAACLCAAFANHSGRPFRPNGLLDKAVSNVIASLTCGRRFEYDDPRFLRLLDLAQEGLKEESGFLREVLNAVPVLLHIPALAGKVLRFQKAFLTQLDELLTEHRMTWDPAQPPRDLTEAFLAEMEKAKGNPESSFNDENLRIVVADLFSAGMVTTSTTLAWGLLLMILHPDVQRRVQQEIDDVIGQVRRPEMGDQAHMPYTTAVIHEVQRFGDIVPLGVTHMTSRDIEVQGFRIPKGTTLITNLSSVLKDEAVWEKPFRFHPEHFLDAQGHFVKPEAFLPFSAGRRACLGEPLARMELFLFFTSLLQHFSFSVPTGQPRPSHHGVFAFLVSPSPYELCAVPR", "experiment": "CYP2D6 P450-Glo luminescent inhibition assay", "assay_type": "in vitro ADME", "settings": "0.01–25 μM", "description": "The luminescent CYP3A4 P450-Glo and CYP2D6 P450-Glo assays and protocols were provided by Promega (Madison, WI, USA). The P450-Glo systems based on the conversion proluciferins, derivatives of beetle luciferin [(4S)-4,5-dihydro-2-(6′-hydroxy-2′-benzothiazolyl)-4-thiazolecarboxylic acid] into D-luciferin were catalyzed by respective CYP isoform. D-Luciferin is formed and detected in a second reaction with the luciferin detection reagent (LDR). The amount of light produced in the second reaction is proportional to CYP activity.\nThe stock solutions (10 mM) of the references ketoconazole (KE), quinidine (QD), and examined compounds were performed in DMSO. The 4× concentrated dilutions were prepared before the assays. […]\nThe CYPs, proluciferin, and examined compounds (25 μL/well) were preincubated first for 5 min, and next the NADPH regeneration system was added (25 μL) to start the reaction. […] The control reactions for measuring the 100% of CYPs activity and minus-CYP negative control reactions for measure background luminescence were also prepared. […] Finally, LDR was added (50 μL/well), and after 20 min of incubation in room temperature the luminescence signal was measured with a microplate reader (EnSpire, PerkinElmer) in luminescence mode. […] The IC50 values and were calculated using GraphPad Prism 5 software."}},
  "data": [
    {"smiles": "O=C(N[C@@H]1CCNC1)c1ccn(S(=O)(=O)c2cccc(Cl)c2)c1-c1ccc(F)cc1", "note": "[Compound 27, (R)-2-(4-Fluorophenyl)-1-[(3-chlorophenyl)sulfonyl]-N-(pyrrolidin-3-yl)-1H-pyrrole-3-carboxamide]", "values": [
      {"measurement": "inhibition at 1 µM", "setting": "D3 dopamine receptor", "value": 17, "unit": "%"},
      {"measurement": "inhibition at 1 µM", "setting": "H1 histaminic receptor", "value": 9, "unit": "%"},
      {"measurement": "inhibition at 1 µM", "setting": "M1 muscarinic receptor", "value": 0, "unit": "%"},
      {"measurement": "inhibition at 1 µM", "setting": "serotonin 5-HT3 receptor", "value": 2, "unit": "%"},
      {"measurement": "inhibition at 1 µM", "setting": "[1]", "value": 10, "unit": "%"},
      {"measurement": "inhibition at 1 µM", "setting": "α1A adrenoreceptor", "value": 15, "unit": "%"},
      {"measurement": "influence on CYP2D6 activity", "setting": "CYP2D6", "value": "did not significantly influence"}
    ]}
  ]
}
